Reference: patent US20160375155A1, “Collagen Imaging Compositions” (Collagen Medical, LLC, priority 2015, published 2016)
Where two headings read alike, the source gives them in different places. Bridge positions count the residues as written; N and C are the ends. Square brackets hold non-standard residues; d marks the D form. Peptide text beside a SMILES is read from it. * marks the point of attachment. X1 = O=C(O)CN1CCN(CC(=O)O)CCN([C@H](CCC(=O)*)C(=O)O)CCN(CC(=O)O)CC1; Bip = N[C@@H](Cc1ccc(-c2ccccc2)cc1)C(=O)O

Experiments:
[1] = test system: acute and chronic myocardial infarct (fibrosis); assay type: in vivo, canine; conditions: for CNR between infarct and blood: Compound ID No. 1 0.0075 mmol/kg, extracellular gadolinium 0.2 mmol/kg
Source text: An experimental protocol was developed to test the ability of Compound ID No. 1 to differentiate acute from chronic myocardial infarction in an in-vivo large animal (canine) model. In this model, early following acute myocardial infarction, pathologic fibrosis has not fully developed within the infarct zone (fibrosis-poor), whereas in chronic MI (˜8 weeks following MI), dense fibrosis fully replaced necrotic myocardium (fibrosis-rich).
In the myocardial fibrosis canine model, a vascular occluder was placed surgically around the left anterior descending coronary artery (LAD) to allow occlusion and reperfusion. Two animals were studied following acute MI and two additional animals were studied both following acute MI, and chronically at 8 weeks. The LAD vessel was completely occluded for 70-90 minutes and then released to allow reperfusion. The chest was sutured closed, and the animal was allowed to recover. Imaging was performed on a 3 T clinical scanner in an acute (<1 week, minimal fibrosis expected in acute necrosis) and chronic (8 weeks, healing complete, necrotic myocardium replaced by dense collagenous scar) time point after infarction. For each time point, the animals undergo 2 scans separated by 48 hours with conventional gadolinium contrast (0.2 mmol/kg GdDTPA) and Compound ID No. 1 (0.0075 mmol/kg).
Imaging was performed on a 3 T clinical scanner (Siemens Verio). Breath holding was achieved by temporarily turning off the animal ventilator, and all images were ECG gated. Standard short and long axis cine imaging was performed throughout the left ventricle to identify left ventricular function and regional wall motion abnormalities. Delayed enhancement imaging (segmented 2D inversion recovery gradient echo) was performed prior to and serially following Compound ID No. 1 administration. Two strategies were employed: (1) a fixed inversion time was chosen to null pre-contrast myocardium (TI˜650 ms), and (2) a variable inversion time set to null post-contrast myocardium as is performed in traditional delayed enhancement imaging.
After imaging, animals were euthanized and post mortem analysis of myocardium was performed. Tissue was assessed grossly by histopathologic staining with triphenyltetrazolium chloride for myocardial infarction, and microscopically with Masson's trichrome staining for fibrosis. Additionally quantitative tissue analysis for hydroxyproline was used to measure total collagen content in tissue and compared to tissue gadolinium concentration by inductively coupled plasma-mass spectrometry. MR data was analyzed quantitatively for conspicuity of infarction and image quality as well as contrast to noise ratio (CNR) for infarct-normal myocardium and infarct-blood.

myocardial collagen = conditions: rat MI model, healthy and infarcted heart
Method: Myocardial infarction was induced in Sprague Dawley rats by occlusion of the left anterior descending coronary artery followed by reperfusion. The rats were anesthetized with an intraperitoneal (i.p.) injection of 100 μg pentobarbital sodium per gram body weight and a thorocotamy was performed. The pericardium was removed and the left anterior artery was sutured with a 7.0 silk suture for 60 minutes after which reperfusion was established.
Animals were sacrificed at 60 minutes post-injection and the heart removed and sectioned for analysis.
The slope for this correlation is a measure of efficacy.

[2] = target: Native canine Collagen Type I and III protein; test: Collagen binding assay, dried dog collagen plate; conditions: 37° C., pH 7.4; collagen 5 μM; fit to 1 binding site
Method: Canine collagen (Native canine Collagen Type I and III protein, YO protein AB, cat#739) is dissolved in 0.5 M acetic acid at 3.3 mg/ml by vortexing and shaking overnight at 4° C. The solution is then dialyzed against 10 mM Phosphate (NaH2PO4), pH 4.2 at 4° C. with three changes of the dialysis buffer.
Ice-cold 1×PBS pH 10.8 is added to the collagen solution for a final collagen concentration of 10 μM, pH 7.4. Collagen solutions are gelled and dried down in the wells of a 96 well microtiter plate (Corning Polystyrene Flat Bottom, cat#3641). 70 μl of 10 μM collagen is aliquoted into each well in every other lane in the plate (48 wells) and the plate is incubated at 37° C. for 18 hours to form a gel and evaporate to dryness. Ungelled collagen is removed by washing the collagen films with 200 μl 1×PBS pH 7.4 (four times, 15 min per wash). The thin collagen fibril film remains, coating the bottom of each well. After washing by PBS the plate is again dried at 37° C. for 2 hours and is stored at −20° C. The final well content of gelled collagen is measured by determination of hydroxyproline and is around 180 μg/ml.
a serial dilution of 0.2 μM-30 μM of the peptide chelate is prepared in PBS, pH 7.4 (˜300 μL of solution for each concentration). 90 μl of each concentration is also reserved in a HPLC glass vial as a sample to measure the total concentration. 140 μL of each dilution of peptide chelate is added to wells containing and non-containing collagen (control for nonspecific plastic binging). The plate is then incubated on a shaker table (300 rpm) for 2 hours at room temperature to allow the compound to bind. […] The concentration of free, unbound compound in the sample supernatants and the concentration of compound in the reserved (total) sample are determined by ICP-MS (Agilent 7500, gadolinium concentration). The concentration of compound bound to collagen is determined as [bound]=[total]−[unbound].
(§1) The binding of compounds to human, rat and dog collagen (5 μM) was measured over the concentration range 0.2-5 μM of Comp ID Nos.: 1-4. […]

[3] = Relaxivity in PBS (Bruker mq60, 60 MHz); assay type: physicochemical; conditions: pH 7.4 PBS at 1.4 T, 37° C.
Method: The relaxivity of Compound ID Nos. 1, 2 and 4 were determined in PBS at 37° C. using a Bruker mq60 spectrometer operating at 60 MHz (1.4 tesla). Samples were equilibrated at concentrations ranging from 0-200 μM for at least 30 minutes at 37° C. T1 was measured using an inversion recovery sequence. Relaxivities were calculated by subtracting the relaxation rate of the buffer […] and then dividing the result by the concentration of Compound.

[4] = target: T1, rat collagen (acid soluble, type I, rat tail) (Rattus norvegicus, UniProt P02454+P02466); test: Collagen binding assay, dried rat collagen plate; conditions: 37° C., pH 7.4; collagen 5 μM; fit to 1 binding site
T1 construct: rat collagen (acid soluble, type I, rat tail, Millipore Inc, cat#08-115); purchased Millipore Inc 08-115; host or cells: rat tail
T1 sequence (P02454 152-1207 limits assumed): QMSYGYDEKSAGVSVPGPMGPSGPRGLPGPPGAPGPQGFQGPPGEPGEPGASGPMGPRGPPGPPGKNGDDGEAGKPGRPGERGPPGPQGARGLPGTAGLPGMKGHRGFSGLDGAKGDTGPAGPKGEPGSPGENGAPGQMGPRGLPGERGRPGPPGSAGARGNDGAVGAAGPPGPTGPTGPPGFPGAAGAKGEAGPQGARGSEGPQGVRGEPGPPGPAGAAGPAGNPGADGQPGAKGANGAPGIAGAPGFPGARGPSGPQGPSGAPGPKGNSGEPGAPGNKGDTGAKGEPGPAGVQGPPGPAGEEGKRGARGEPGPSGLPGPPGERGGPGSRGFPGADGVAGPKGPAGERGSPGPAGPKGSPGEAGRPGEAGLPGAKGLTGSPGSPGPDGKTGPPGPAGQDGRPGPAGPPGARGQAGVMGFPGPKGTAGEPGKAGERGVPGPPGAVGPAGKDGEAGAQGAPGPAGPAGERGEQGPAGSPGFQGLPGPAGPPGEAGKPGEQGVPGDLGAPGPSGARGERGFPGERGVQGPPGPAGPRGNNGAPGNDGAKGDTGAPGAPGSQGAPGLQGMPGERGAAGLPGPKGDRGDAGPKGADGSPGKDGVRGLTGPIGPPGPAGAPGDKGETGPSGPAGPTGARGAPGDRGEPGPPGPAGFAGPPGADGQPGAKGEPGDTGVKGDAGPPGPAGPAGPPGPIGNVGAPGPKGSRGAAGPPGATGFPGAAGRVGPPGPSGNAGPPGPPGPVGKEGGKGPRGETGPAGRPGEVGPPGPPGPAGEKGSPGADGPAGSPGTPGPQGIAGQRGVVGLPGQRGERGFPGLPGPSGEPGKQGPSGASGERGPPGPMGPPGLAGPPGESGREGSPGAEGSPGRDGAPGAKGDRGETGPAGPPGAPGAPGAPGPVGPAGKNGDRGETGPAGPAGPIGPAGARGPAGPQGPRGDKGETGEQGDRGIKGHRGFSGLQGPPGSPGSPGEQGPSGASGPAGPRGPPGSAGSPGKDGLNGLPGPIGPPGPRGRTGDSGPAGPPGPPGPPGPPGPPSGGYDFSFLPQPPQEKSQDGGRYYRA
T1 sequence (P02466 86-1125 limits assumed): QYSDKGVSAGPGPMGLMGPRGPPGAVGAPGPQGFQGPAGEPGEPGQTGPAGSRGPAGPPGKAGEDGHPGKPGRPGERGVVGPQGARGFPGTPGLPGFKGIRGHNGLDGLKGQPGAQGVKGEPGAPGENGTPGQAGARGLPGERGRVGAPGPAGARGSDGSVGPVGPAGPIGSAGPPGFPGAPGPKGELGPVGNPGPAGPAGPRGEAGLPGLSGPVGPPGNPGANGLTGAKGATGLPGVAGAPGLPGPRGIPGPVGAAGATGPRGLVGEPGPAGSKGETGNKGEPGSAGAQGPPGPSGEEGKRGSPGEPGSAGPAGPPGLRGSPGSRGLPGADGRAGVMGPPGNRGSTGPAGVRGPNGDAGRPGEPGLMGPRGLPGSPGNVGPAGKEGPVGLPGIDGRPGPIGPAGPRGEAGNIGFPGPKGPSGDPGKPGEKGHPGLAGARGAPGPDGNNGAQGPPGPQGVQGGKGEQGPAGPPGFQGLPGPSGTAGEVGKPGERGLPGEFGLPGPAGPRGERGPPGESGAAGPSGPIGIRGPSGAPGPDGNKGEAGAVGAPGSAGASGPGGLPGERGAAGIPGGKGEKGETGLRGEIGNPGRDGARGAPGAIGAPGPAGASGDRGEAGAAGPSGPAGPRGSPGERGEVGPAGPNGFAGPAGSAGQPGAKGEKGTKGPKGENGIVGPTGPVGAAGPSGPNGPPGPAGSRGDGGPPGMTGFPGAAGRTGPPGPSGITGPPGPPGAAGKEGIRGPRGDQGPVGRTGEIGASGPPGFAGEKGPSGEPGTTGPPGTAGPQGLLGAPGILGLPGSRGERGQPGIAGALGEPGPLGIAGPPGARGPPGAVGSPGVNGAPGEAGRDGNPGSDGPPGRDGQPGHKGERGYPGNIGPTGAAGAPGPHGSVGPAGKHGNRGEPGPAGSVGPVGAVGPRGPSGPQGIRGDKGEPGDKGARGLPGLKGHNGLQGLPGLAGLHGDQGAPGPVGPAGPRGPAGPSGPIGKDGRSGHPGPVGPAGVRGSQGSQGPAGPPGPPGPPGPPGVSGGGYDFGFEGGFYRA
Method: 10 ml of a 3.79 mg/mL solution of rat collagen (acid soluble, type I, rat tail, Millipore Inc, cat#08-115) is dialyzed against 10 mM Phosphate (NaH2PO4), pH 4.2 at 4° C. with three changes of the dialysis buffer.
Ice-cold 1×PBS pH 10.8 is added to the collagen solution for a final collagen concentration of 10 μM, pH 7.4. Collagen solutions are gelled and dried down in the wells of a 96 well microtiter plate (Corning Polystyrene Flat Bottom, cat#3641). 70 μl of 10 μM collagen is aliquoted into each well in every other lane in the plate (48 wells) and the plate is incubated at 37° C. for 18 hours to form a gel and evaporate to dryness. […] The final well content of gelled collagen is measured by determination of hydroxyproline and is around 180 μg/ml.
(§2) a serial dilution of 0.2 μM-30 μM of the peptide chelate is prepared in PBS, pH 7.4 (˜300 μL of solution for each concentration). […] The concentration of free, unbound compound in the sample supernatants and the concentration of compound in the reserved (total) sample are determined by ICP-MS (Agilent 7500, gadolinium concentration). The concentration of compound bound to collagen is determined as [bound]=[total]−[unbound].
as §1

human type I collagen = target: T2, human type I collagen (Homo sapiens, UniProt P02452+P08123); test: Collagen binding assay, dried human collagen plate; conditions: 37° C., pH 7.4; collagen 5 μM; fit to 1 binding site
T2 construct: purchased Advanced Biomatrix 5007-A
T2 sequence (P02452 162-1218 limits assumed): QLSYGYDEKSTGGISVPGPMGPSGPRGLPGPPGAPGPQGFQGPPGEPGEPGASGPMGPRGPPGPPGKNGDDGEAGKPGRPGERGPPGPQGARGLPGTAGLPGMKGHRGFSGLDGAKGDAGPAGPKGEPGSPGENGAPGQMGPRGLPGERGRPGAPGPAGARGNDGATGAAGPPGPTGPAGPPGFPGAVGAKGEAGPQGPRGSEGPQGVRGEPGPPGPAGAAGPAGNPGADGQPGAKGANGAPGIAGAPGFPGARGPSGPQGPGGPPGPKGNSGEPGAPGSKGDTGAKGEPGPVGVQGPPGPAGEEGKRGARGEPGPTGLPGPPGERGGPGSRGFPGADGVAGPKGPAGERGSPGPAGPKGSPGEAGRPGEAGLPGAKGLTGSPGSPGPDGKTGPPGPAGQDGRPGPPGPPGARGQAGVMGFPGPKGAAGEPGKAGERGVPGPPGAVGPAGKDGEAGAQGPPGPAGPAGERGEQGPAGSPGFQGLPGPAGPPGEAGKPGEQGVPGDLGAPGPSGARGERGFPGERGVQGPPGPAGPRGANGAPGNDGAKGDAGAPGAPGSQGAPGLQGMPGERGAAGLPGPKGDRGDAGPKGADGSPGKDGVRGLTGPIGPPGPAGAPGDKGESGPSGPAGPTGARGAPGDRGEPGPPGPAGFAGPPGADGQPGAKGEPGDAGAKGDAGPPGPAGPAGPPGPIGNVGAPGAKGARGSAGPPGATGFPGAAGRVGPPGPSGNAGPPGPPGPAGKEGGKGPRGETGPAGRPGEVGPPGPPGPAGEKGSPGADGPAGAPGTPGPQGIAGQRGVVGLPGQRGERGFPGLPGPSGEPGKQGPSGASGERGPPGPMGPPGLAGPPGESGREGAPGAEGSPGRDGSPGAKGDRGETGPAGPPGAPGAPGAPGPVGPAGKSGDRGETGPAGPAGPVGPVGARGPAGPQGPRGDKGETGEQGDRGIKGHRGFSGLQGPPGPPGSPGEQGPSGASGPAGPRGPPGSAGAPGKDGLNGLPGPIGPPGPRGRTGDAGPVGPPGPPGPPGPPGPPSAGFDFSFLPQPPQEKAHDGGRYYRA
T2 sequence (P08123 80-1119 limits assumed): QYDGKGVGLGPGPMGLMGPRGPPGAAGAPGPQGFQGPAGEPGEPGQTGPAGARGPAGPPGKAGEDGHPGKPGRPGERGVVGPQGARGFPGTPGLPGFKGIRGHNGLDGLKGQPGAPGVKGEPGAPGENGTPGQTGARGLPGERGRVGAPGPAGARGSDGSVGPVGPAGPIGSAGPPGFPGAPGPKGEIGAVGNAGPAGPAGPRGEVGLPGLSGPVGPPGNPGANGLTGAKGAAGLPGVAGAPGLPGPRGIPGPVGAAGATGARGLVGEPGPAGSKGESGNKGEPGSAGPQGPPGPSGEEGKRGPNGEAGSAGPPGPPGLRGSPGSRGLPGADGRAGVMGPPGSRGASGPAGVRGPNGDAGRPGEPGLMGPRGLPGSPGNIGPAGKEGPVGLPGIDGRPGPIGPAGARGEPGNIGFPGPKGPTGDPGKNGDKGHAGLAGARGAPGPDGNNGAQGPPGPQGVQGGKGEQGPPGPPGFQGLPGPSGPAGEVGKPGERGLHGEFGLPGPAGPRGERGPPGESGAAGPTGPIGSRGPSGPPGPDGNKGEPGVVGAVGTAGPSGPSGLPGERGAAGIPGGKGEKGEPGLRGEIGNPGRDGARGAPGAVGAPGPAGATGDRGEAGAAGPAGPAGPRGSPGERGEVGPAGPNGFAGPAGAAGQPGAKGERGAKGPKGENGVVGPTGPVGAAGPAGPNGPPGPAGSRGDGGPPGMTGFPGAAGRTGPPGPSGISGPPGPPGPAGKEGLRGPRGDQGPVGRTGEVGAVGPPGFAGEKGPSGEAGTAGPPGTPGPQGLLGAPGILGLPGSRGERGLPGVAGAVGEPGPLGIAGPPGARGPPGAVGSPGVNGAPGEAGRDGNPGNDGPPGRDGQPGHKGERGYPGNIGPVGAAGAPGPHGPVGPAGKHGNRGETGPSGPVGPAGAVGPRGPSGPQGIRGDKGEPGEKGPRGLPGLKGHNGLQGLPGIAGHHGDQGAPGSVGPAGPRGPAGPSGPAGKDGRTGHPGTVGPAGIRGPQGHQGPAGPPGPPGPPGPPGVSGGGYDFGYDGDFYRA
Method: 10 ml of a solution of 3 mg/ml of human type I collagen (VitroCol solution, Advanced Biomatrix, cat#5007-A) is dialyzed against 10 mM Phosphate (NaH2PO4), pH 4.2 at 4° C. with three changes of the dialysis buffer. The protein concentration is determined by liquid chromatography determination of hydroxyproline (P. Hutson, J. Chromatogr. B, 791 (2003) 427-430).
Ice-cold 1×PBS pH 10.8 is added to the collagen solution for a final collagen concentration of 10 μM, pH 7.4. Collagen solutions are gelled and dried down in the wells of a 96 well microtiter plate (Corning Polystyrene Flat Bottom, cat#3641). […] The final well content of gelled collagen is measured by determination of hydroxyproline and is around 180 μg/ml.
as §2, §1

SMILES	MR image uptake in scar vs healthy myocardium ([1]; chronic myocardial infarction, FIG. 25b)	calculated slope, hydroxyproline vs. gadolinium concentration (myocardial collagen)	Kd [2] [µM]	R1 (relaxivity) [3] [mM⁻¹ s⁻¹]	Kd [4] [µM]	Kd (human type I collagen) [µM]	CNR between infarct and blood ([1]; acute MI)	CNR between infarct and blood ([1]; chronic MI (8 weeks))
CC(C)C[C@H](NC(=O)[C@@H]1CSSC[C@H](NC(=O)[C@H](Cc2c[nH]cn2)NC(=O)[C@H](Cc2c[nH]c3ccccc23)NC(=O)[C@H](CCCCNC(=O)CC[C@H](C(=O)O)N2CCN(CC(=O)O)CCN(CC(=O)O)CCN(CC(=O)O)CC2)NC(=O)CC[C@H](C(=O)O)N2CCN(CC(=O)O)CCN(CC(=O)O)CCN(CC(=O)O)CC2)C(=O)N[C@@H]([C@@H](C)O)C(=O)N[C@@H]([C@@H](C)O)C(=O)N[C@@H](CCCCNC(=O)CC[C@H](C(=O)O)N2CCN(CC(=O)O)CCN(CC(=O)O)CCN(CC(=O)O)CC2)C(=O)N[C@@H](Cc2ccccc2)C(=O)N2CCC[C@H]2C(=O)N[C@@H](Cc2c[nH]cn2)C(=O)N[C@@H](Cc2c[nH]cn2)C(=O)N[C@@H](Cc2ccc(O)cc2)C(=O)N1)C(=O)N[C@@H](Cc1ccc(O)cc1)C(=O)N[C@@H](Cc1ccc(-c2ccccc2)cc1)C(N)=O [Compound ID No. 2] (X1-K(X1)WHCTTK(X1)FPHHYCLY[Bip]-NH2; disulfide 4-13)	early uptake	3184	4.9	42.9	20.6	4.9	–	–
CC(C)[C@H](NC(=O)[C@@H]1CSSC[C@H](NC(=O)[C@H](Cc2c[nH]cn2)NC(=O)[C@H](Cc2c[nH]c3ccccc23)NC(=O)[C@H](CCCCNC(=O)CC[C@H](C(=O)O)N2CCN(CC(=O)O)CCN(CC(=O)O)CCN(CC(=O)O)CC2)NC(=O)CC[C@H](C(=O)O)N2CCN(CC(=O)O)CCN(CC(=O)O)CCN(CC(=O)O)CC2)C(=O)N[C@@H](Cc2ccc(O)cc2)C(=O)N[C@@H]([C@@H](C)O)C(=O)N[C@@H](CCCCNC(=O)CC[C@H](C(=O)O)N2CCN(CC(=O)O)CCN(CC(=O)O)CCN(CC(=O)O)CC2)C(=O)N[C@@H](Cc2ccccc2)C(=O)N2CCC[C@H]2C(=O)N[C@@H](Cc2c[nH]cn2)C(=O)N[C@@H](Cc2c[nH]cn2)C(=O)N[C@@H](Cc2ccc(O)cc2)C(=O)N1)C(=O)N[C@@H](Cc1ccc(O)cc1)C(=O)N[C@@H](Cc1ccc(-c2ccccc2)cc1)C(N)=O [Compound ID No. 4] (X1-K(X1)WHCYTK(X1)FPHHYCVY[Bip]-NH2; disulfide 4-13)	–	3057	2	51.2	4.6	9.6	–	–
O=C([O-])CN(CCN(CC(=O)[O-])CC(=O)O)CCN(CC(=O)[O-])CC(=O)O.[Gd+3] [extracellular gadolinium, gadolinium diethylenetriaminepentaacetate, reference compound]	–	–	–	–	–	–	6.3±3.4	5±1.3
